Data reported in US20240101576A1, “HETEROCYCLIC INHIBITORS OF EGFR AND/OR HER2, FOR USE IN THE TREATMENT OF CANCER” (Scorpion Therapeutics, Inc., priority 2020, published 2024).

Experiments:
Type in all cases: cell-based
[1] = target: T1, EGFR exon 20 NPG Ins D770_N771 (Ba/F3 cells) (Homo sapiens, UniProt P00533, INS770NPG); assay: Inhibitor activity on EGFR-dependent cell growth (CellTiter-Glo, 72 h), Ba/F3 EGFR exon 20 NPG Ins; details: read-out: BaF3 NPG IC50
T1 construct: expressed in transfected cells; host or cells: Ba/F3 (murine pro-B cells), retroviral transduction, puromycin selection, IL3-independent pool
T1 sequence (P00533 with tags, fused parts or gaps INS770NPG): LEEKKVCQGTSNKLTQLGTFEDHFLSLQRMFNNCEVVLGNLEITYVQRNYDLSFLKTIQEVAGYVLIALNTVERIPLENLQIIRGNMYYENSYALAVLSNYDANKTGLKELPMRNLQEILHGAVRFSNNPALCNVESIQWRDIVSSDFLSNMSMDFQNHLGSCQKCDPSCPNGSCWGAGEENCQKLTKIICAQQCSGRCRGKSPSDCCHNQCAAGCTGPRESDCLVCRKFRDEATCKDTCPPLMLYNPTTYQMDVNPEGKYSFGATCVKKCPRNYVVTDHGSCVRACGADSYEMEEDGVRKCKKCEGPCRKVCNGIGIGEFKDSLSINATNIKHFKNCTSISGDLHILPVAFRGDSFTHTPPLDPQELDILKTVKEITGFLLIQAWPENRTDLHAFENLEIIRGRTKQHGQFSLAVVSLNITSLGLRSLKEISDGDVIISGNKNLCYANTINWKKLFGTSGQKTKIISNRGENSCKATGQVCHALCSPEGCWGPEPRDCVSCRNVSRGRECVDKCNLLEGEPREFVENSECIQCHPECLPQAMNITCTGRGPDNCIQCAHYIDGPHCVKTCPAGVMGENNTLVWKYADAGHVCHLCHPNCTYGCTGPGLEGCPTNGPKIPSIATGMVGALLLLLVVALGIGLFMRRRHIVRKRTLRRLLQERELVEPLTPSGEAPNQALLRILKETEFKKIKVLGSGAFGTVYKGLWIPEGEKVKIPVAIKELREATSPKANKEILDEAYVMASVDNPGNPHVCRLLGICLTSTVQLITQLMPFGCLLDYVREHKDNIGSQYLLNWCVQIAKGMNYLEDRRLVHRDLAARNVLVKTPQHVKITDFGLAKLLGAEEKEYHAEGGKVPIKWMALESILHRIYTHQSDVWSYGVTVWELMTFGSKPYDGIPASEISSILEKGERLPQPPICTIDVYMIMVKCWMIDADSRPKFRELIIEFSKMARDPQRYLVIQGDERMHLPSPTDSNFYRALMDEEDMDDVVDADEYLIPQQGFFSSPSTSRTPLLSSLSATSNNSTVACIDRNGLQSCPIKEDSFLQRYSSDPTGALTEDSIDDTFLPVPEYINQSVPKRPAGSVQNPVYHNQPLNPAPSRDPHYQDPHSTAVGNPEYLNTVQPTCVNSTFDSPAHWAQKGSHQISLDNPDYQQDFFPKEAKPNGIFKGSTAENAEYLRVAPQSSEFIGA
Procedure, shortened: (§1)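 IC50s derive from a sigmoidal dose–response fit of CellTiter-Glo signal. The signal was normalised between […]-treated cells and cell-free medium. Ba/F3 mutant-EGFR cells, seeded at 400–800/well depending on the line, had 72 h of exposure to a 10-point, 3-fold compound series.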

[2] = target: T2, EGFR exon 20 ASV Ins V769_D770 (Ba/F3 cells) (Homo sapiens, UniProt P00533, INS769ASV); assay: Inhibitor activity on EGFR-dependent cell growth (CellTiter-Glo, 72 h), Ba/F3 EGFR exon 20 ASV Ins; details: read-out: BaF3 ASV IC50
T2 construct: expressed in transfected cells; host or cells: Ba/F3 (murine pro-B cells), retroviral transduction, puromycin selection, IL3-independent pool
Procedure, shortened: as §1

[3] = target: T3, EGFR exon 20 SVD Ins D770_N771 (Ba/F3 cells) (Homo sapiens, UniProt P00533, INS770SVD); assay: Inhibitor activity on EGFR-dependent cell growth (CellTiter-Glo, 72 h), Ba/F3 EGFR exon 20 SVD Ins; details: read-out: BaF3 SVD IC50
T3 construct: expressed in transfected cells; host or cells: Ba/F3 (murine pro-B cells), retroviral transduction, puromycin selection, IL3-independent pool
T3 sequence (P00533 with tags, fused parts or gaps INS770SVD): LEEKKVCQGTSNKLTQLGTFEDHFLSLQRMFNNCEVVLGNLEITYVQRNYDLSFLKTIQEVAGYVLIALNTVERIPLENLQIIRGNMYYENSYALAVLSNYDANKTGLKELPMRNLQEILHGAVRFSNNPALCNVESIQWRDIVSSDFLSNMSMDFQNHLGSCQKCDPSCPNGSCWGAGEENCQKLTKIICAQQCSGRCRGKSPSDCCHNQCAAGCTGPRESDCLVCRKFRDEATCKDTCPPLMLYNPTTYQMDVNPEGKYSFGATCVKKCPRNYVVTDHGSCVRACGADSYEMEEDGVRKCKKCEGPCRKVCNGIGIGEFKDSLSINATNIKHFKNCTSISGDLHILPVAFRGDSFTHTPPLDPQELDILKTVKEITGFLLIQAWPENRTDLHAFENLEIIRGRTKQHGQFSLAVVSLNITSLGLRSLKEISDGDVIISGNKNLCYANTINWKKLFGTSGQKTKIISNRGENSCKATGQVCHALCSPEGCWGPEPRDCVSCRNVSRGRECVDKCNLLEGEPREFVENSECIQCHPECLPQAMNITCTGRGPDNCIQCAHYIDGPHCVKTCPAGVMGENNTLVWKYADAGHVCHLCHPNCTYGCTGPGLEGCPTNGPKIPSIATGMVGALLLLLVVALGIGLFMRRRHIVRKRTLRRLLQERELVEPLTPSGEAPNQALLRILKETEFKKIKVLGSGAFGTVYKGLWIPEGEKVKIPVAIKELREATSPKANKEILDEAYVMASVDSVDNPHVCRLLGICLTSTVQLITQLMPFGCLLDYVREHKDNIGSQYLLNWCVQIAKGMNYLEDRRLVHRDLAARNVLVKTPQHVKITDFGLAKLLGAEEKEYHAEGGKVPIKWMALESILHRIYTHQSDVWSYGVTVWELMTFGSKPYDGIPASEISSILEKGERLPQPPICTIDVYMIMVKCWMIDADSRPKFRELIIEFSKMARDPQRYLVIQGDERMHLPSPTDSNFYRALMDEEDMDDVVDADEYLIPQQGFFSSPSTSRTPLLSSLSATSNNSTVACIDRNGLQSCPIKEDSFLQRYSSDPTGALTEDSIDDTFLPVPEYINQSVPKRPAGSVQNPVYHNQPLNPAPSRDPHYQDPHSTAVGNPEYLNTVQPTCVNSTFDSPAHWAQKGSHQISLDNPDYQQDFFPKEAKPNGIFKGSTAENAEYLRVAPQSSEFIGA
Procedure, shortened: as §1

[4] = target: T4, EGFR exon 20 FQEA Ins A763_V764 (Ba/F3 cells) (Homo sapiens, UniProt P00533, INS763FQEA); assay: Inhibitor activity on EGFR-dependent cell growth (CellTiter-Glo, 72 h), Ba/F3 EGFR exon 20 FQEA Ins; details: read-out: BaF3 FQEA IC50
T4 construct: expressed in transfected cells; host or cells: Ba/F3 (murine pro-B cells), retroviral transduction, puromycin selection, IL3-independent pool
T4 sequence (P00533 with tags, fused parts or gaps INS763FQEA): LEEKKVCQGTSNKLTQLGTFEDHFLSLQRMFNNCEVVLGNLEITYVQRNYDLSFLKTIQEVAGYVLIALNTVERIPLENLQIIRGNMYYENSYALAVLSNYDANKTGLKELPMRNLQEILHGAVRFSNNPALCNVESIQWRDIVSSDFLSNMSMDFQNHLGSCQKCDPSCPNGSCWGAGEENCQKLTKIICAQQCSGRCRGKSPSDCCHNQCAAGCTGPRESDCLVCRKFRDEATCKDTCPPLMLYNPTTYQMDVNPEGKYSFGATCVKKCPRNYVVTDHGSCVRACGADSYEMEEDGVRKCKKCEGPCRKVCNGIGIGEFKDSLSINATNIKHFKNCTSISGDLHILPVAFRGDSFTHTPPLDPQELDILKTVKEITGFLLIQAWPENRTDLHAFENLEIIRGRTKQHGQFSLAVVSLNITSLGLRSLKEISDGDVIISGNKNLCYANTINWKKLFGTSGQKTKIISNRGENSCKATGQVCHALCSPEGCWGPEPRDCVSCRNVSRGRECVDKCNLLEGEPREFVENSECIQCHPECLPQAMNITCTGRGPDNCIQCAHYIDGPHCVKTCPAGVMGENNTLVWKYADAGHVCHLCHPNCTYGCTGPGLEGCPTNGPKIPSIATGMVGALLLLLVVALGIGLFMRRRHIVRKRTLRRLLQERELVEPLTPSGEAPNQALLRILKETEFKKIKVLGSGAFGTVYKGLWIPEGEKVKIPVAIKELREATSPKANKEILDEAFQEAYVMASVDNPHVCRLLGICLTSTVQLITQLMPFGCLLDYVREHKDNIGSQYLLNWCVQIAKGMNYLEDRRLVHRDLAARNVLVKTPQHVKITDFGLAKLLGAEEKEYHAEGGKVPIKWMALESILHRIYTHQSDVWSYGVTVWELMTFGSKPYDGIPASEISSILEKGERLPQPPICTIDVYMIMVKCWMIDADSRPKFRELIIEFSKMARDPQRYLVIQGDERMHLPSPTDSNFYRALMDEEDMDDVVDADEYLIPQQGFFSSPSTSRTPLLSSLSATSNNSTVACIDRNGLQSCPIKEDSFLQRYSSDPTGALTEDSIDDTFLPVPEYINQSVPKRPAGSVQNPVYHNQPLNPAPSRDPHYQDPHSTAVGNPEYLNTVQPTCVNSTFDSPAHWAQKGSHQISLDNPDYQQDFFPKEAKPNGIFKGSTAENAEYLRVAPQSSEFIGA
Procedure, shortened: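 Steps: seed Ba/F3 EGFR-mutant pools (800 cells/well FQEA and exon 19del; 600 L858R/C797S; 400 L858R). Add 120 nL of serially diluted compound and incubate 72 h. Equilibrate to room temperature, add CellTiter-Glo and read after 30 min. Fit IC50.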

[5] = target: T1, EGFR exon 20 NPG Ins D770_N771 (Ba/F3 cells); assay: Inhibitor activity on EGFR phosphorylation (pEGFR AlphaLISA, 2 h), Ba/F3 EGFR exon 20 NPG Ins
From the text: Example B. Inhibitor Activity on EGFR phosphorylation (pEGFR)
EGFR mutant Ba/F3 cells were generated by transduction with retrovirus containing vectors expressing EGFR L858R, EGFR exon 19del, EGFR L858R/C797S, EGFR exon 20 NPG Ins D770_N771, EGFR exon 20 ASV Ins V769_D770, or EGFR exon 20 SVD Ins D770_N771 genes along with a puromycin selection marker. Transduced cells are selected with puromycin for 7 days and are then be transferred into culture media without Interleukin 3 (IL3). Surviving cells are confirmed to express EGFR by Western blot and maintained as a pool. CUTO14 cells were obtained from Dr. Robert C. Doebele at the University of Colorado. The IC50 date are included in Table 6 and Table 7.
1.1 Cells are harvested from flask into cell culture medium and the cell number counted.
1.2 Cells are diluted with culture medium to the desired density and 40 μL of cell suspension is added into each well of 384-well cell culture plate and the seeding density is 50K cells/well (Ba/F3) or 12.5K cells/well (CUTO14).
2 Compound Preparation and Treatment
2.1 Test compounds are dissolved to 10 mM in a DMSO stock solution. 45 μL of stock solution is transferred to a 384 polypropylene plate (pp-plate). Perform 3-fold, 10-point dilution via transferring 15 μL compound into 30 μL DMSO using a TECAN (EVO200) liquid handler.
2.2 Spin plates at room temperature at 1,000 RPM for 1 minute.
2.3 Transfer 5 nL of diluted compound from compound source plate into the cell plate.
2.4 After compound treatment for 2 hours, perform pEGFR detection by AlphaLISA for compound treatment plates as described in “Detection” section.
3 Detection by pEGFR AlphaLISA (Perkin-Elmer)
3.1 Plates are removed from incubators and equilibrated at room temperature for 10 minutes, and media was removed
3.2 10 μL of lysis buffer is added and plates shaken at 600 rpm for 1 hr.
3.3 Prepare acceptor mix just before use and dispense 5 μL of acceptor mix to all the wells. Shake 350 rpm for Ihr in the dark
3.4 Prepare donor mix under low light conditions prior to use. Dispense 5 μL of donor mix to all the wells. Mix well on the shaker, seal and wrap in aluminum foil and incubate 1.5 hrs at room temperature in the dark
3.5 Transfer 18.5 μL mixture to OptiPlate 384, and read using an Envision. The IC50 date were included in Table 6 and Table 7.

EGFR WT (Ba/F3 cells) = target: T5, EGFR WT (Ba/F3 cells) (Homo sapiens, UniProt P00533); assay: Inhibitor activity on EGFR-dependent cell growth (CellTiter-Glo, 72 h), Ba/F3 EGFR WT; details: read-out: BaF3 WT IC50
T5 construct: expressed in transfected cells; host or cells: Ba/F3 (murine pro-B cells), retroviral transduction, puromycin selection, maintained with EGF
T5 sequence (P00533 25-1210): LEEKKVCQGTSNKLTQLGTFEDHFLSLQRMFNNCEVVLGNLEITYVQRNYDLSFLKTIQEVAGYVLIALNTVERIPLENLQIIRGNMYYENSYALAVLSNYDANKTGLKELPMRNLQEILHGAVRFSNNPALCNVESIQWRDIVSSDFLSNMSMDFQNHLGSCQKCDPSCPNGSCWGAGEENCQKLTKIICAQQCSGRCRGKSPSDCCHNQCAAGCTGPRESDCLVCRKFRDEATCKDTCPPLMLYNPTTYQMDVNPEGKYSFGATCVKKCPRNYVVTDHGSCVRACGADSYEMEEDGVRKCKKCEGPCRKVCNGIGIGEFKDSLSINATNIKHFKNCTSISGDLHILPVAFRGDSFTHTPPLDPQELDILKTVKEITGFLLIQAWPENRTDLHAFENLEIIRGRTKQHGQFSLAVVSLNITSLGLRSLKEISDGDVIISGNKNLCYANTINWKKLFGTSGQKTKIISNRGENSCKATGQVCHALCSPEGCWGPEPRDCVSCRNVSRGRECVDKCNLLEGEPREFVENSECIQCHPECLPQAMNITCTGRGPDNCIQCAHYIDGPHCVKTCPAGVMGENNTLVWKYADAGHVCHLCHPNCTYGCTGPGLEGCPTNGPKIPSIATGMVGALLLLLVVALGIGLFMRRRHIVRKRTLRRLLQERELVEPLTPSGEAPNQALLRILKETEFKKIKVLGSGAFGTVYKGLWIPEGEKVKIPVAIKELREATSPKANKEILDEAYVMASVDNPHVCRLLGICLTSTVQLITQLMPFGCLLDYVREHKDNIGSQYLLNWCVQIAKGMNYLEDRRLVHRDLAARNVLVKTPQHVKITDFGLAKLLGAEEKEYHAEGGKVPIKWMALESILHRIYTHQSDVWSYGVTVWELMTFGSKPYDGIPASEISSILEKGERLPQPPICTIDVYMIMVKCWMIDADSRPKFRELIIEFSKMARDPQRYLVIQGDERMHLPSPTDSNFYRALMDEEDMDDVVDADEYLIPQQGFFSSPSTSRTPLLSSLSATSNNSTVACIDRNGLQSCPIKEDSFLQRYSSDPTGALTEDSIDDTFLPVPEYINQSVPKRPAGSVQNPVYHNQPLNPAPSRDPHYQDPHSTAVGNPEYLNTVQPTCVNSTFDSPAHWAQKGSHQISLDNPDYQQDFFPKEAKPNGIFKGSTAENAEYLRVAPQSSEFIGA
Procedure, shortened: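 This growth assay used Ba/F3 cells that depend on wild-type EGFR and are kept in EGF without IL3. Compounds were made up as 10 mM DMSO stocks and diluted 3-fold over 10 points. 120 nL went onto 600 cells/well. After 72 hours, 40 μL CellTiter-Glo was added and luminescence read on EnVision after 30 min.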

| SMILES | IC50 [1] [nM] | IC50 [2] [nM] | IC50 [3] [nM] | IC50 [4] [nM] | IC50 [5] [nM] | IC50 (EGFR WT (Ba/F3 cells)) [nM] |
| --- | --- | --- | --- | --- | --- | --- |
| COc1ccc2nccc(-c3[nH]c4c(c3Nc3cccc(Cl)c3OC)C(=O)NCC4)c2n1 [Compound 149, 3-((3-chloro-2-methoxyphenyl)amino)-2-(6-methoxy-1,5-naphthyridin-4-yl)-1,5,6,7-tetrahydro-4H-pyrrolo[3,2-c]pyridin-4-one] | < 100 | < 100 | < 100 | < 100 | < 100 |  |
| COc1c(Cl)cccc1Nc1c(-c2ccnc(N)n2)[nH]c2c1C(=O)NC[C@@H]2C[C@@H]1COCCO1 [Compound 532, (7S)-2-(2-aminopyrimidin-4-yl)-3-[(3-chloro-2-methoxyphenyl)amino]-7-[(2R)-1,4-dioxan-2-ylmethyl]-1H,5H,6H,7H-pyrrolo[3,2-c]pyridin-4-one] | < 100 | < 100 | < 100 |  | < 100 | > 1000 |
| C=CC(=O)N1CCC2(CC1)CNC(=O)c1c2[nH]c(-c2ccncc2F)c1Nc1cccc(F)c1CC [Compound 557, 3′-[(2-ethyl-3-fluorophenyl)amino]-2′-(3-fluoropyridin-4-yl)-1-(prop-2-enoyl)-5′,6′-dihydro-1′H-spiro[piperidine-4,7′-pyrrolo[3,2-c]pyridin]-4′-one] | < 100 | < 100 | < 100 |  | < 100 | < 100 |
| C=CC(=O)N1CCN(c2ncc3nccc(-c4[nH]c5c(c4Nc4cccc(F)c4OC)C(=O)NCC5)c3n2)CC1 [Compound 576, 3-[(3-fluoro-2-methoxyphenyl)amino]-2-{2-[4-(prop-2-enoyl)piperazin-1-yl]pyrido[3,2-d]pyrimidin-8-yl}-1H,5H,6H,7H-pyrrolo[3,2-c]pyridin-4-one] | < 100 | < 100 | < 100 |  | < 100 | < 100 |
| COc1ccc2nccc(-c3[nH]c4c(c3Nc3cccc(F)c3OC)C(=O)NCC4)c2n1 [Compound 681, 3-[(3-fluoro-2-methoxyphenyl)amino]-2-(6-methoxy-1,5-naphthyridin-4-yl)-1H,5H,6H,7H-pyrrolo[3,2-c]pyridin-4-one] | < 100 | < 100 | < 100 | < 100 | < 100 | < 100 |
| COc1nc2c(-c3[nH]c4c(c3Nc3cccc(F)c3OC)C(=O)NCC4)ccnc2cc1C [Compound 682, 3-[(3-fluoro-2-methoxyphenyl)amino]-2-(6-methoxy-7-methyl-1,5-naphthyridin-4-yl)-1H,5H,6H,7H-pyrrolo[3,2-c]pyridin-4-one] | < 100 |  |  |  | < 100 | < 100 |
| COc1ccc2nccc(-c3[nH]c4c(c3Nc3cccc(F)c3C)C(=O)NCC4)c2n1 [Compound 684, 3-[(3-fluoro-2-methylphenyl)amino]-2-(6-methoxy-1,5-naphthyridin-4-yl)-1H,5H,6H,7H-pyrrolo[3,2-c]pyridin-4-one] | < 100 | < 100 | < 100 | < 100 | < 100 | 100 to 1000 |
| C=CC(=O)N1CCC(Oc2nc3c(-c4[nH]c5c(c4Nc4cccc(Cl)c4OC)C(=O)NCC5)ccnc3cc2OC)CC1 [Compound 731, 3-[(3-chloro-2-methoxyphenyl)amino]-2-(7-methoxy-6-{[1-(prop-2-enoyl)piperidin-4-yl]oxy}-1,5-naphthyridin-4-yl)-1H,5H,6H,7H-pyrrolo[3,2-c]pyridin-4-one] | < 100 | < 100 | < 100 |  | < 100 | < 100 |
| COc1c(F)cccc1Nc1c(-c2ncnc3sccc23)[nH]c2c1C(=O)NCC2 [compound 138] | > 1000 |  |  |  | > 1000 | > 1000 |
| COc1c(F)cccc1Nc1c(-c2ccnc(N)n2)[nH]c2c1C(=O)NCC2 [compound 281] | < 100 |  |  | 100 to 1000 | < 100 | > 1000 |
| Nc1nccc(-c2[nH]c3c(c2Nc2cccc(F)c2OC(F)F)C(=O)NCC3)n1 [compound 299] | 100 to 1000 | 100 to 1000 | 100 to 1000 | 100 to 1000 | < 100 | > 1000 |

Second part, the compound after the results:

| IC50 [1] [nM] | IC50 [2] [nM] | IC50 [3] [nM] | IC50 [4] [nM] | IC50 [5] [nM] | IC50 (EGFR WT (Ba/F3 cells)) [nM] | SMILES |
| --- | --- | --- | --- | --- | --- | --- |
| < 100 | < 100 | < 100 | < 100 | < 100 | 100 to 1000 | COc1c(Cl)cccc1Nc1c(-c2ccnc3cnc(OC4COC4)nc23)[nH]c2c1C(=O)NCC2 [compound 441] |
| < 100 | < 100 | < 100 | < 100 | < 100 | 100 to 1000 | COc1c(F)cccc1Nc1c(-c2ccnc3cccnc23)[nH]c2c1C(=O)NCC2 [compound 442] |
| 100 to 1000 | 100 to 1000 | 100 to 1000 | 100 to 1000 | < 100 | > 1000 | COc1c(Cl)cccc1Nc1c(-c2ccnc3cnc(OCCN(C)C)nc23)[nH]c2c1C(=O)NCC2 [compound 502, 3-[(3-chloro-2-methoxyphenyl)amino]-2-{2-[2-(dimethylamino)ethoxy]pyrido[3,2-d]pyrimidin-8-yl}-1H,5H,6H,7H-pyrrolo[3,2-c]pyridin-4-one] |
| < 100 | < 100 | < 100 | < 100 | < 100 | 100 to 1000 | COc1c(Cl)cccc1Nc1c(-c2ccnc(Nc3cn(C)nn3)n2)[nH]c2c1C(=O)NCC2 [compound 511, 3-[(3-chloro-2-methoxyphenyl)amino]-2-{2-[(1-methyl-1,2,3-triazol-4-yl)amino]pyrimidin-4-yl}-1H,5H,6H,7H-pyrrolo[3,2-c]pyridin-4-one] |
| < 100 | < 100 | < 100 | < 100 | < 100 | < 100 | COc1cc2nccc(-c3[nH]c4c(c3Nc3cccc(Cl)c3OC)C(=O)NCC4)c2nc1OC [compound 730, 3-[(3-chloro-2-methoxyphenyl)amino]-2-(6,7-dimethoxy-1,5-naphthyridin-4-yl)-1H,5H,6H,7H-pyrrolo[3,2-c]pyridin-4-one] |
| 100 to 1000 | < 100 | < 100 | < 100 | < 100 | 100 to 1000 | COc1c(Cl)cccc1Nc1c(-c2ccnc3ccc(OCC4CC(F)(F)C4)nc23)[nH]c2c1C(=O)NCC2 [compound 757, 3-[(3-chloro-2-methoxyphenyl)amino]-2-[6-[(3,3-difluorocyclobutyl)methoxy]-1,5-naphthyridin-4-yl]-1H,5H,6H,7H-pyrrolo[3,2-c]pyridin-4-one] |
